The values below come from patent US12139492B2 (Endotarget Inc., priority 2021, dated 2024).

Some results are limits rather than exact numbers.

Holding throughout (format): cell-based
One test has as its system Mino cells. As to the kind of experiment: Antiproliferative effect, MTS cell viability assay, Mino cells. The following applies: Homo sapiens, MINO, Mino mantle cell lymphoma cells; read-out: IC50 (anti-proliferation) Mino cells. An outline of the steps: (§1)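 Mino and JeKo-1 mantle B-cell lymphoma lines were exposed to compound at 0, 0.001, 0.01, 0.1, 1 and 10 μM for 72 h. Viability was read by MTS reduction to formazan, measured as absorbance at 490 nm.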

Another test relates to JeKo-1 cells. As to the kind of experiment: Antiproliferative effect, MTS cell viability assay, JeKo-1 cells. The following applies: Homo sapiens; JeKo-1 mantle cell lymphoma cells; read-out: IC50 (anti-proliferation) JeKO-1 cells. The method, boiled down: as §1
For orientation: Tetrazolium assays rely on reduction of a dye to a coloured formazan, in cell work by metabolically active cells.

Another test has as its target BTK (Homo sapiens, UniProt Q06187). The experiment in a line: BTK degradation, DC50 and Dmax of Table 1 (cell line not given). On the set-up: endogenous in cells. Particulars: for DC50: concentration giving 50% reduction of BTK expression level.

Broadly, the Dmax is the largest share of the target that was removed. Higher therefore signals deep degradation. Usually DC50 stands for the concentration at which degradation of the target reaches its halfway point. A higher DC50 goes with degradation only at high concentration.

Sequence of BTK (Q06187 whole entry): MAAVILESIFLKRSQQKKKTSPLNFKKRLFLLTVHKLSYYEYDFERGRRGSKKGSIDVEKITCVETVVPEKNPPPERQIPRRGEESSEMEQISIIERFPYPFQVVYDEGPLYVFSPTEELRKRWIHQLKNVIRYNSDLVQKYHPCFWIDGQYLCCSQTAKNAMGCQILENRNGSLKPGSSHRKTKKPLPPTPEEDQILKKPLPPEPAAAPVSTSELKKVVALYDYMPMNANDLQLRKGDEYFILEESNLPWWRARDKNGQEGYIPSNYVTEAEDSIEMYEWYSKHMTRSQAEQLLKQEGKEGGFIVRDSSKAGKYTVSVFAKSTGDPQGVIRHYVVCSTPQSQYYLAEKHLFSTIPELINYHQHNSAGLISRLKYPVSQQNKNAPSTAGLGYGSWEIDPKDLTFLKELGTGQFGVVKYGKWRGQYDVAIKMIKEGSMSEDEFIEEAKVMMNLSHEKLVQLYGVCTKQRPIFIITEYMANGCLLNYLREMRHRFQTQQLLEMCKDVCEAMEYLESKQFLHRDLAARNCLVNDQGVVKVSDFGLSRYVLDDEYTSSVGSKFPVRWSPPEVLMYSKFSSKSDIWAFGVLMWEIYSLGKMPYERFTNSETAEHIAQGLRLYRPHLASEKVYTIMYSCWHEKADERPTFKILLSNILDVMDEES

As to `Nc1ncnc2c1c(-c1ccc(Oc3ccccc3)cc1)nn2[C@@H]1CCCN(CC2CCN(CCCC3CCN(c4ccc5c(c4)CN(C4CCC(=O)NC4=O)C5=O)CC3)CC2)C1` (stereo partly drawn) [Compound 142, 3-(5-(4-(3-(4-(((R)-3-(4-amino-3-(4-phenoxyphenyl)-1H-pyrazolo[3,4-d]pyrimidin-1-yl)piperidin-1-yl)methyl)piperidin-1-yl)propyl)piperidin-1-yl)-1-oxoisoindolin-2-yl)piperidine-2,6-dione], the IC50 in the test on Mino cells is 1000 to 10000 nM. Also, the IC50 in the test with JeKo-1 cells was more than 10000 nM. At BTK, this molecule had a Dmax of more than 75% and a DC50 of 10 to 50 nM.

For the molecule `Nc1ncnc2c1c(-c1ccc(Oc3ccccc3)cc1)nn2[C@@H]1CCCN(C2CCN(CC3CCN(c4ccc5c(c4)C(=O)N(C4CCC(=O)NC4=O)C5=O)CC3)CC2)C1` (stereo partly drawn) [Compound 143, 5-(4-(((R)-3-(4-amino-3-(4-phenoxyphenyl)-1H-pyrazolo[3,4-d]pyrimidin-1-yl)-[1,4′-bipiperidin]-1′-yl)methyl)piperidin-1-yl)-2-(2,6-dioxopiperidin-3-yl)isoindoline-1,3-dione], the IC50 in the test with Mino cells was more than 10000 nM. Moreover, the IC50 with JeKo-1 cells was more than 10000 nM. On BTK, this molecule came in with a Dmax of more than 90% and a DC50 of 10 to 50 nM.

As to `Nc1ncnc2c1c(-c1ccc(Oc3ccccc3)cc1)nn2[C@@H]1CCCN(C2CCN(CC3CCN(c4ccc5c(c4)CN(C4CCC(=O)NC4=O)C5=O)CC3)CC2)C1` (stereo partly drawn) [Compound 144, 3-(5-(4-(((R)-3-(4-amino-3-(4-phenoxyphenyl)-1H-pyrazolo[3,4-d]pyrimidin-1-yl)-[1,4′-bipiperidin]-1′-yl)methyl)piperidin-1-yl)-1-oxoisoindolin-2-yl)piperidine-2,6-dione], the IC50 with Mino cells was 1000 to 10000 nM; in the test on JeKo-1 cells it was more than 10000 nM. The Dmax on BTK is more than 90%. On BTK, this molecule registered a DC50 of 10 to 50 nM.

On to `Nc1ncnc2c1c(-c1ccc(Oc3ccccc3)cc1)nn2[C@@H]1CCCN(C2CCN(CCC3CCN(c4ccc5c(c4)C(=O)N(C4CCC(=O)NC4=O)C5=O)CC3)CC2)C1` (stereo partly drawn) [Compound 145, 5-(4-(2-((R)-3-(4-amino-3-(4-phenoxyphenyl)-1H-pyrazolo[3,4-d]pyrimidin-1-yl)-[1,4′-bipiperidin]-1′-yl)ethyl)piperidin-1-yl)-2-(2,6-dioxopiperidin-3-yl)isoindoline-1,3-dione], for which the IC50 in the test with Mino cells was more than 10000 nM. For the same molecule, the IC50 in the test with JeKo-1 cells was more than 10000 nM. On BTK, this molecule showed a Dmax of more than 75% and a DC50 of more than 50 nM.

Take `Nc1ncnc2c1c(-c1ccc(Oc3ccccc3)cc1)nn2[C@@H]1CCCN(C2CCN(CCC3CCN(c4ccc5c(c4)CN(C4CCC(=O)NC4=O)C5=O)CC3)CC2)C1` (stereo partly drawn) [Compound 146, 3-(5-(4-(2-((R)-3-(4-amino-3-(4-phenoxyphenyl)-1H-pyrazolo[3,4-d]pyrimidin-1-yl)-[1,4′-bipiperidin]-1′-yl)ethyl)piperidin-1-yl)-1-oxoisoindolin-2-yl)piperidine-2,6-dione]: in the test with Mino cells, the IC50 was 1000 to 10000 nM. For the same molecule, the IC50 in the test on JeKo-1 cells is more than 10000 nM. Moreover, on BTK, the Dmax was more than 75% and the DC50 is more than 50 nM.

Turning to `Nc1ncnc2c1c(-c1ccc(Oc3ccccc3)cc1)nn2[C@@H]1CCCN(C2CCN(CCN3CCN(c4ccc5c(c4)C(=O)N(C4CCC(=O)NC4=O)C5=O)CC3)CC2)C1` (stereo partly drawn) [Compound 147, 5-(4-(2-((R)-3-(4-amino-3-(4-phenoxyphenyl)-1H-pyrazolo[3,4-d]pyrimidin-1-yl)-[1,4′-bipiperidin]-1′-yl)ethyl)piperazin-1-yl)-2-(2,6-dioxopiperidin-3-yl)isoindoline-1,3-dione], the IC50 with Mino cells is more than 10000 nM. Further, in the test on JeKo-1 cells, the IC50 was more than 10000 nM. At BTK, the Dmax is more than 75% and the DC50 lay within 10 to 50 nM.

For the molecule `Nc1ncnc2c1c(-c1ccc(Oc3ccccc3)cc1)nn2[C@@H]1CCCN(C2CCN(CCN3CCN(c4ccc5c(c4)CN(C4CCC(=O)NC4=O)C5=O)CC3)CC2)C1` (stereo partly drawn) [Compound 148, 3-(5-(4-(2-((R)-3-(4-amino-3-(4-phenoxyphenyl)-1H-pyrazolo[3,4-d]pyrimidin-1-yl)-[1,4′-bipiperidin]-1′-yl)ethyl)piperazin-1-yl)-1-oxoisoindolin-2-yl)piperidine-2,6-dione], the IC50 in the test on Mino cells is 1000 to 10000 nM. Besides, the IC50 with JeKo-1 cells was more than 10000 nM. At BTK, the Dmax was more than 75% and the DC50 was 10 to 50 nM.

On to `Nc1ncnc2c1c(-c1ccc(Oc3ccccc3)cc1)nn2[C@@H]1CCCN(C2CCN(CCN3CCC(c4ccc5c(c4)C(=O)N(C4CCC(=O)NC4=O)C5=O)CC3)CC2)C1` (stereo partly drawn) [Compound 149, 5-(1-(2-((R)-3-(4-amino-3-(4-phenoxyphenyl)-1H-pyrazolo[3,4-d]pyrimidin-1-yl)-[1,4′-bipiperidin]-1′-yl)ethyl)piperidin-4-yl)-2-(2,6-dioxopiperidin-3-yl)isoindoline-1,3-dione], for which, in the test with Mino cells, the IC50 is 1000 to 10000 nM. Also, in the test on JeKo-1 cells, the IC50 was more than 10000 nM. Moreover, at BTK, the Dmax is more than 90% and the DC50 was in the range of 10 to 50 nM.

As to `Nc1ncnc2c1c(-c1ccc(Oc3ccccc3)cc1)nn2[C@@H]1CCCN(C2CCN(CCN3CCC(c4ccc5c(c4)CN(C4CCC(=O)NC4=O)C5=O)CC3)CC2)C1` (stereo partly drawn) [Compound 150, 3-(5-(1-(2-((R)-3-(4-amino-3-(4-phenoxyphenyl)-1H-pyrazolo[3,4-d]pyrimidin-1-yl)-[1,4′-bipiperidin]-1′-yl)ethyl)piperidin-4-yl)-1-oxoisoindolin-2-yl)piperidine-2,6-dione], the values for the IC50 with Mino cells and in the test with JeKo-1 cells were more than 10000 nM and 1000 to 10000 nM, respectively. For the same molecule, at BTK, the Dmax is more than 75%. Also, the DC50 at BTK lay within 10 to 50 nM.

Take `Nc1ncnc2c1c(-c1ccc(Oc3ccccc3)cc1)nn2[C@@H]1CCCN(C2CCN(CCCN3CCN(c4ccc5c(c4)C(=O)N(C4CCC(=O)NC4=O)C5=O)CC3)CC2)C1` (stereo partly drawn) [Compound 151, 5-(4-(3-((R)-3-(4-amino-3-(4-phenoxyphenyl)-1H-pyrazolo[3,4-d]pyrimidin-1-yl)-[1,4′-bipiperidin]-1′-yl)propyl)piperazin-1-yl)-2-(2,6-dioxopiperidin-3-yl)isoindoline-1,3-dione]: the IC50 in the test with Mino cells and in the test on JeKo-1 cells was more than 10000 nM each time. Besides, at BTK, the Dmax was more than 75%. Besides, at BTK, the DC50 is more than 50 nM.

As for `Nc1ncnc2c1c(-c1ccc(Oc3ccccc3)cc1)nn2[C@@H]1CCCN(C2CCN(CCCN3CCN(c4ccc5c(c4)CN(C4CCC(=O)NC4=O)C5=O)CC3)CC2)C1` (stereo partly drawn) [Compound 152, 3-(5-(4-(3-((R)-3-(4-amino-3-(4-phenoxyphenyl)-1H-pyrazolo[3,4-d]pyrimidin-1-yl)-[1,4′-bipiperidin]-1′-yl)propyl)piperazin-1-yl)-1-oxoisoindolin-2-yl)piperidine-2,6-dione], the IC50 in the test on Mino cells was more than 10000 nM. The IC50 in the test with JeKo-1 cells is more than 10000 nM. On BTK, this molecule registered a Dmax of more than 75% and a DC50 of more than 50 nM.

As for `Nc1ncnc2c1c(-c1ccc(Oc3ccccc3)cc1)nn2[C@@H]1CCCN(C2CCN(CCCN3CCC(c4ccc5c(c4)C(=O)N(C4CCC(=O)NC4=O)C5=O)CC3)CC2)C1` (stereo partly drawn) [Compound 153, 5-(1-(3-((R)-3-(4-amino-3-(4-phenoxyphenyl)-1H-pyrazolo[3,4-d]pyrimidin-1-yl)-[1,4′-bipiperidin]-1′-yl)propyl)piperidin-4-yl)-2-(2,6-dioxopiperidin-3-yl)isoindoline-1,3-dione], in the test with Mino cells, the IC50 was more than 10000 nM. Moreover, the IC50 in the test with JeKo-1 cells was more than 10000 nM. At BTK, the Dmax is more than 75% and the DC50 is more than 50 nM.
